The values that follow come from patent publication US8574563B2 (Bristol-Myers Squibb Company, priority 2006, dated 2013).

In the assay the test system is HCV 1b-377-neo replicon cells. Nature of the assay: HCV replicon assay, HCV 1b-377-neo replicon cells (1b FRET). Type of assay: cell-based, Hepatitis C virus genotype 1b. In a few lines: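 FRET-based replicon assay in HCV 1b-377-neo cells, including a comparison line carrying the NS5A Y2065H mutation that confers resistance to a reference compound.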
The mark [1] stands for this setting: Hepatitis C virus, HCV 1b-377-neo replicon cells, HCV 1b genotype, read-out: EC50 range against HCV 1b (Table 2, Range).

Read-outs that look alike come from different tables or passages of the source.

For `COCC(=O)N[C@H](C(=O)N1CCC[C@H]1c1nc(-c2ccc(-c3ccc(-c4c[nH]c([C@@H]5CCCN5C(=O)[C@@H](NC(=O)COC)C(C)C)n4)cc3)cc2)c[nH]1)C(C)C` [Example F62, 2-methoxy-N-((1S)-1-(((2S)-2-(4-(4′-(2-((2S)-1-((2S)-2-((methoxyacetyl)amino)-3-methylbutanoyl)-2-pyrrolidinyl)-1H-imidazol-4-yl)-4-biphenylyl)-1H-imidazol-2-yl)-1-pyrrolidinyl)carbonyl)-2-methylpropyl)acetamide], under setting [1], the concentration for a half-maximal effect (EC50) lay within 1 to 99 nM.

For the compound `CNC(=O)N[C@H](C(=O)N1CCC[C@H]1c1nc(-c2ccc(-c3ccc(-c4c[nH]c([C@@H]5CCCN5C(=O)[C@@H](NC(=O)NC)C(C)C)n4)cc3)cc2)c[nH]1)C(C)C` [Example F63, 1-methyl-3-((1S)-2-methyl-1-(((2S)-2-(4-(4′-(2-((2S)-1-(N-(methylcarbamoyl)-L-valyl)-2-pyrrolidinyl)-1H-imidazol-4-yl)-4-biphenylyl)-1H-imidazol-2-yl)-1-pyrrolidinyl)carbonyl)propyl)urea], under setting [1], the EC50 fell in the range of 0.001 to 0.999 nM.

For `CCNC(=O)N[C@H](C(=O)N1CCC[C@H]1c1nc(-c2ccc(-c3ccc(-c4c[nH]c([C@@H]5CCCN5C(=O)[C@@H](NC(=O)NCC)C(C)C)n4)cc3)cc2)c[nH]1)C(C)C` [Example F64, 1-ethyl-3-((1S)-1-(((2S)-2-(4-(4′-(2-((2S)-1-((2S)-2-((ethylcarbamoyl)amino)-3-methylbutanoyl)-2-pyrrolidinyl)-1H-imidazol-4-yl)-4-biphenylyl)-1H-imidazol-2-yl)-1-pyrrolidinyl)carbonyl)-2-methylpropyl)urea], the EC50 under setting [1] fell in the range of 1 to 99 nM.

Consider `CC(C)[C@H](NS(=O)(=O)C(C)C)C(=O)N1CCC[C@H]1c1ncc(-c2ccc(-c3ccc(-c4cnc([C@@H]5CCCN5C(=O)[C@@H](NS(=O)(=O)N(C)C)C(C)C)[nH]4)cc3)cc2)[nH]1` [Example F65, N—((S)-1-((S)-2-(5-(4′-(2-((S)-1-((S)-2-(N,N-dimethylsulfamoylamino)-3-methylbutanoyl)pyrrolidin-2-yl)-1H-imidazol-5-yl)biphenyl-4-yl)-1H-imidazol-2-yl)pyrrolidin-1-yl)-3-methyl-1-oxobutan-2-yl)propane-2-sulfonamide], for which the EC50 reads like this: (HCV 1b replicon, FRET, read-out: 1b Fret (EC50 μM)) 210 nM; (HCV 1b-377-neo replicon cells, HCV 1b genotype, read-out: EC50 range against HCV 1b (Table 2, Range)) 100 to 999 nM.

With `CC(C)[C@H](NS(C)(=O)=O)C(=O)N1CCC[C@H]1c1nc(-c2ccc(-c3ccc(-c4c[nH]c([C@@H]5CCCN5C(=O)[C@@H](NS(C)(=O)=O)C(C)C)n4)cc3)cc2)c[nH]1` [Example F66, N-((1S)-2-methyl-1-(((2S)-2-(4-(4′-(2-((2S)-1-((2S)-3-methyl-2-((methylsulfonyl)amino)butanoyl)-2-pyrrolidinyl)-1H-imidazol-4-yl)-4-biphenylyl)-1H-imidazol-2-yl)-1-pyrrolidinyl)carbonyl)propyl)methanesulfonamide], the half-maximal effective concentration (EC50) under setting [1] was in the range of 1 to 99 nM.

With `CCS(=O)(=O)N[C@H](C(=O)N1CCC[C@H]1c1nc(-c2ccc(-c3ccc(-c4c[nH]c([C@@H]5CCCN5C(=O)[C@@H](NS(=O)(=O)CC)C(C)C)n4)cc3)cc2)c[nH]1)C(C)C` [Example F67, N-((1S)-1-(((2S)-2-(4-(4′-(2-((2S)-1-((2S)-2-((ethylsulfonyl)amino)-3-methylbutanoyl)-2-pyrrolidinyl)-1H-imidazol-4-yl)-4-biphenylyl)-1H-imidazol-2-yl)-1-pyrrolidinyl)carbonyl)-2-methylpropyl)ethanesulfonamide], under setting [1], the concentration giving a half-maximal response (EC50) is 1 to 99 nM.

Consider `C[C@H](NS(C)(=O)=O)C(=O)N1CCC[C@H]1c1nc(-c2ccc(-c3ccc(-c4cnc([C@@H]5CCCN5C(=O)[C@H](C)NS(C)(=O)=O)[nH]4)cc3)cc2)c[nH]1` [Example F69, N-((1S)-1-methyl-2-((2S)-2-(5-(4′-(2-((2S)-1-(N-(methylsulfonyl)-L-alanyl)-2-pyrrolidinyl)-1H-imidazol-4-yl)-4-biphenylyl)-1H-imidazol-2-yl)-1-pyrrolidinyl)-2-oxoethyl)methanesulfonamide], for which the half-maximal effective concentration (EC50) under setting [1] was 100 to 999 nM.

Turning to `COC(=O)N[C@H](C(=O)N1CCC[C@H]1c1ncc(-c2ccc(-c3ccc(-c4[nH]c([C@@H]5CCCN5C(=O)[C@@H](NC(=O)OC)C(C)C)nc4CC4OCCCO4)cc3)cc2)[nH]1)C(C)C` [Example J14, methyl ((1S)-1-(((2S)-2-(4-(1,3-dioxan-2-ylmethyl)-5-(4′-(2-((2S)-1-((2S)-2-((methoxycarbonyl)amino)-3-methylbutanoyl)-2-pyrrolidinyl)-1H-imidazol-4-yl)-4-biphenylyl)-1H-imidazol-2-yl)-1-pyrrolidinyl)carbonyl)-2-methylpropyl)carbamate], the EC50 under setting [1] was in the range of 0.001 to 0.999 nM.

Turning to `COC(=O)N[C@H](C(=O)N1CCC[C@H]1c1ncc(-c2ccc(-c3ccc(-c4nc([C@@H]5CCCN5C(=O)[C@@H](NC(=O)OC)[C@@H](C)OC)[nH]c4CC(OC)OC)cc3)cc2)[nH]1)[C@@H](C)OC` [Example J14a, methyl ((1S,2R)-1-(((2S)-2-(4-(2,2-dimethoxyethyl)-5-(4′-(2-((2S)-1-(N-(methoxycarbonyl)-O-methyl-L-threonyl)-2-pyrrolidinyl)-1H-imidazol-4-yl)-4-biphenylyl)-1H-imidazol-2-yl)-1-pyrrolidinyl)carbonyl)-2-methoxypropyl)carbamate], under setting [1], the EC50 was in the range of 0.001 to 0.999 nM.

On to `COC(=O)N[C@H](C(=O)N1CCC[C@H]1c1ncc(-c2ccc(-c3ccc(-c4nc([C@@H]5CCCN5C(=O)[C@@H](NC(=O)OC)C(C)C)[nH]c4CC(OC)OC)cc3)cc2)[nH]1)C(C)C` [Example J14a.1, methyl ((1S)-1-(((2S)-2-(4-(2,2-dimethoxyethyl)-5-(4′-(2-((2S)-1-((2S)-2-((methoxycarbonyl)amino)-3-methylbutanoyl)-2-pyrrolidinyl)-1H-imidazol-4-yl)-4-biphenylyl)-1H-imidazol-2-yl)-1-pyrrolidinyl)carbonyl)-2-methylpropyl)carbamate], for which the EC50 under setting [1] was 0.001 to 0.999 nM.

Regarding `COC(=O)Cc1[nH]c([C@@H]2CCCN2C(=O)[C@@H](NC(=O)OC)[C@@H](C)OC)nc1-c1ccc(-c2ccc(-c3cnc([C@@H]4CCCN4C(=O)[C@@H](NC(=O)OC)[C@@H](C)OC)[nH]3)cc2)cc1` [Example J14b, methyl (2-((2S)-1-(N-(methoxycarbonyl)-O-methyl-L-threonyl)-2-pyrrolidinyl)-4-(4′-(2-((2S)-1-(N-(methoxycarbonyl)-O-methyl-L-threonyl)-2-pyrrolidinyl)-1H-imidazol-4-yl)-4-biphenylyl)-1H-imidazol-5-yl)acetate], the EC50 under setting [1] lay in the range of 0.001 to 0.999 nM.

On to `COC(=O)Cc1[nH]c([C@@H]2CCCN2C(=O)[C@@H](NC(=O)OC)C(C)C)nc1-c1ccc(-c2ccc(-c3cnc([C@@H]4CCCN4C(=O)[C@@H](NC(=O)OC)C(C)C)[nH]3)cc2)cc1` [Example J14b.1, methyl (2-((2S)-1-(N-(methoxycarbonyl)-L-valyl)-2-pyrrolidinyl)-4-(4′-(2-((2S)-1-(N-(methoxycarbonyl)-L-valyl)-2-pyrrolidinyl)-1H-imidazol-4-yl)-4-biphenylyl)-1H-imidazol-5-yl)acetate], for which the half-maximal effective concentration (EC50) under setting [1] was 0.001 to 0.999 nM.

Regarding `CCCc1[nH]c([C@@H]2CCCN2C(=O)[C@H](C)NC(=O)OC)nc1-c1ccc(-c2ccc(-c3cnc([C@@H]4CCCN4C(=O)[C@H](C)NC(=O)OC)[nH]3)cc2)cc1` [Example J14c, methyl ((1S)-2-((2S)-2-(4-(4′-(2-((2S)-1-(N-(methoxycarbonyl)-L-alanyl)-2-pyrrolidinyl)-4-propyl-1H-imidazol-5-yl)-4-biphenylyl)-1H-imidazol-2-yl)-1-pyrrolidinyl)-1-methyl-2-oxoethyl)carbamate], the EC50 under setting [1] fell in the range of 0.001 to 0.999 nM.

On to `CCCc1[nH]c([C@@H]2CCCN2C(=O)[C@@H](c2ccccc2)N(CC)CC)nc1-c1ccc(-c2ccc(-c3cnc([C@@H]4CCCN4C(=O)[C@@H](c4ccccc4)N(CC)CC)[nH]3)cc2)cc1` [Example J14c.1, (1R)-2-((2S)-2-(4-(4′-(2-((2S)-1-((2R)-2-(diethylamino)-2-phenylacetyl)-2-pyrrolidinyl)-1H-imidazol-4-yl)-4-biphenylyl)-5-propyl-1H-imidazol-2-yl)-1-pyrrolidinyl)-N,N-diethyl-2-oxo-1-phenylethanamine], for which the EC50 under setting [1] is 0.001 to 0.999 nM.

Consider `CCCc1[nH]c([C@@H]2CCCN2C(=O)[C@@H](NC(=O)OC)C(C)C)nc1-c1ccc(-c2ccc(-c3cnc([C@@H]4CCCN4C(=O)[C@@H](NC(=O)OC)C(C)C)[nH]3)cc2)cc1` [Example J14c.2, methyl ((1S)-1-(((2S)-2-(4-(4′-(2-((2S)-1-((2S)-2-((methoxycarbonyl)amino)-3-methylbutanoyl)-2-pyrrolidinyl)-1H-imidazol-4-yl)-4-biphenylyl)-5-propyl-1H-imidazol-2-yl)-1-pyrrolidinyl)carbonyl)-2-methylpropyl)carbamate], for which, under setting [1], the concentration giving a half-maximal response (EC50) is 0.001 to 0.999 nM.

`COC(=O)N[C@H](C(=O)N1CC(F)(F)C[C@H]1c1nc(-c2ccc(-c3ccc(-c4cnc([C@@H]5CCCN5C(=O)[C@@H](NC(=O)OC)C(C)C)[nH]4)c(F)c3)cc2)c[nH]1)C(C)C` [Example J14e, methyl ((1S)-1-(((2S)-4,4-difluoro-2-(4-(3′-fluoro-4′-(2-((2S)-1-((2S)-2-((methoxycarbonyl)amino)-3-methylbutanoyl)-2-pyrrolidinyl)-1H-imidazol-4-yl)-4-biphenylyl)-1H-imidazol-2-yl)-1-pyrrolidinyl)carbonyl)-2-methylpropyl)carbamate]: the half-maximal effective concentration (EC50) under setting [1] is 0.001 to 0.999 nM.

Take `CCN(CC)[C@@H](C(=O)N1CC(F)(F)C[C@H]1c1nc(-c2ccc(-c3ccc(-c4cnc([C@@H]5CCCN5C(=O)[C@@H](c5ccccc5)N(CC)CC)[nH]4)c(F)c3)cc2)c[nH]1)c1ccccc1` [Example J14e.1, (1R)-2-((2S)-2-(4-(4′-(2-((2S)-1-((2R)-2-(diethylamino)-2-phenylacetyl)-4,4-difluoro-2-pyrrolidinyl)-1H-imidazol-4-yl)-3-fluoro-4-biphenylyl)-1H-imidazol-2-yl)-1-pyrrolidinyl)-N,N-diethyl-2-oxo-1-phenylethanamine]: under setting [1], the concentration for a half-maximal effect (EC50) was in the range of 0.001 to 0.999 nM.
